The text below walks through data of US20110183969A1, “ANTIFUNGAL COMBINATION THERAPY” (priority 2008, published 2011).

≈ marks a conversion by molar mass, not a printed value. Like-named read-outs stand apart in the source and are kept apart here.

Type in all cases: cell-based
One test deals with Aspergillus terreus AT49. Briefly: MIC (YAG medium). As to conditions: YAG medium, MIC banded into grades, AT49; for MIC: Aspergillus terreus, read-out: MIC A. terreus 49 (grade). The procedure, abridged:
(§1)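 MIC in mg/L, defined as >70% growth inhibition relative to drug-free control by optical density at 485 nm. Plates held 24 hrs at 35° C with Aspergillus inocula of 1-2×10^4 cfu/mL in YAG medium (1% glucose, 1% ammonium chloride, 0.5% yeast extract). Compounds tested at 50-0.05 mg/L, repeated at 0.5-0.0005 mg/L where needed.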

The test system of another test is Aspergillus terreus AT4. The test is described as follows: MIC (YAG medium). As to conditions: YAG medium, MIC banded into grades, AT4; for MIC: Aspergillus terreus, read-out: MIC A. terreus (grade). An outline of the steps: as §1
Test [1] relates to Aspergillus fumigatus AF293. The test is described as follows: MIC (YAG medium). As to conditions: YAG medium, MIC banded into grades, AF293; for MIC: Aspergillus fumigatus, read-out: MIC A. fumigatus (grade). An outline of the steps: as §1
The subject of test [2] is Aspergillus fumigatus AF210. The test is described as follows: MIC (YAG medium). As to conditions: YAG medium, MIC banded into grades, AF210; for MIC: Aspergillus fumigatus, read-out: MIC A. fumigatus 210 (grade). The procedure, abridged: as §1
For the next test, the system named is Aspergillus flavus. Briefly: MIC (YAG medium). As to conditions: YAG medium, MIC banded into grades; for MIC: Aspergillus flavus, read-out: MIC A. flavus (grade). An outline of the steps:
as §1

A further test relates to Aspergillus niger. The test is described as follows: MIC (YAG medium). The following applies: YAG medium, MIC banded into grades; for MIC: Aspergillus niger, read-out: MIC A. niger (grade). An outline of the steps:
as §1

For the next test, the system named is Fusarium solani FS2. The test is described as follows: 24 hr Fusarium solani MIC (RPMI medium, FS2). As to conditions: banded into grades. As for the experimental part:
Between 1 and 5 mgs of compound were accurately weighed out into a sterile Eppendorf tube. The compound was dissolved in DMSO to give a solution containing 5 mg/mL. Tubes were stored at −20° C. until required.
On the day of testing thawed solutions were vortex mixed to ensure homogeneity. 30 μL of solution was removed and added to 570 μL of sterile water in a separate sterile Eppendorf The thoroughly mixed solution was used to prepare a series of doubling dilutions in water, in a deep well plate. […] replicate plates were prepared using a Minitrak by aspirating 20 μL from each well into eleven clear polystyrene 96 well plates.
Spores of Aspergillus spp. (Aspergillus fumigatus [two strains], Aspergillus terreus [two strains], Aspergillus niger and Aspergillus flavus) were harvested from cultures grown on Sabarauds agar for 5 days, and resuspended in PBS/Tween 80 to approx 1×10^7 cfu/mL. Other filamentous fungi (Absidia corymbifera, Fusarium solani, Rhizomucor, Scedosporium spp., Trichophyton spp.), were grown on Sabarauds agar for 2-10 days and spores/hyphae resuspended in PBS/Tween to give approx 1×10^7 cfu/mL. Candida species (Candida albicans, Candida glabrata, Candida krusei, Candida parapsilosis and Candida tropicalis) were grown on Sabarauds agar, cells were harvested from the agar using a sterile loop and resuspended in PBS/Tween 80 to approx 1×10^6 cfu/mL. Each organism suspension was diluted in RPMI medium, containing 2% glucose and 0.135 M MOPS buffer (pH 7.0) to 0.5−2×10^4 cfu/mL for Aspergillus spp. and other filamentous fungi and 0.5-2×10^3 cfu/mL for yeast. 80 μL of an organism suspension was added to each well of the plate containing drug dilutions.
This produced MIC plates with a drug range 50-0.05 mg/L and organism inocula of 1-2×10^4 cfu/mL for Aspergillus spp. and other filamentous fungi and 1-2×10^3 cfu/mL for yeasts. All plates were incubated for 24-48 hrs at 35° C. Growth was assessed by monitoring the optical density at 485 nm for each well. The MIC of a compound is the lowest drug concentration that inhibits growth of an organism by >80% compared with a drug free control. MICs are recorded as mg/L. Other growth media can be used for susceptibility testing, and the activity of the described compounds can also be assessed in a medium comprising 1% glucose, 1% ammonium chloride and 0.5% yeast extract (YAG medium). To perform MIC tests in this medium, dilutions of compounds are prepared in microtitre plates as described above. Fungal strains to be tested are grown and harvested in an identical manner to that described above, each organism suspension is then diluted in YAG medium to 0.5-2×10^4 cfu/mL for Aspergillus spp. and other filamentous fungi and 0.5-2×10^3 cfu/mL for yeast. 80 μL of an organism suspension was added to each well of the plate containing drug dilutions. This produced MIC plates with a drug range 50-0.05 mg/L and organism inocula of 1-2×10^4 cfu/mL for Aspergillus spp. and other filamentous fungi and 1-2×10^3 cfu/mL for yeasts. All plates were incubated for 24 hrs at 35° C. Growth was assessed by monitoring the optical density at 485 nm for each well. The MIC of a compound is the lowest drug concentration that inhibits growth of an organism by >70% compared with a drug free control. MICs are recorded as mg/L. In cases where the MIC of an organism is […] mg/L the MIC is repeated using a concentration range of 0.5-0.0005 mg/L. MIC tests in YAG medium have more clear-cut endpoints and have slightly lower MICs than those performed in RPMI medium.
24 hr Fusarium solani MIC Results (RPMI Medium, FS2): […]

On to `CON=C1CCN(c2ccc(NC(=O)C(=O)c3c(-c4ccccc4)cc4ccccn34)cc2)CC1` [Example 2, N-[4-(4-methoxyimino-piperidin-1-yl)-phenyl]-2-oxo-2-(2-phenyl-indolizin-3-yl)-acetamide], for which the MIC (in the test on Aspergillus terreus AT49; with Aspergillus terreus AT4; in test [1]; in test [2]; in the test on Aspergillus flavus; with Aspergillus niger) was less than 1 µg/mL in each case. Besides, the MIC in the test on Fusarium solani FS2 (read-out: MIC) was less than 1 µg/mL.
On to `C=C1CCN(c2ccc(NC(=O)C(=O)c3c(-c4ccccc4)cc4ccccn34)cc2)CC1` [Example 3, N-[4-(4-methylene-piperidin-1-yl)-phenyl]-2-oxo-2-(2-phenyl-indolizin-3yl) acetamide], for which, in the test with Aspergillus terreus AT49, the “MIC A. terreus 49 (grade)” value was 3 (A grade of 3 represents an MIC of less than 1 mg/L). The “MIC A. terreus (grade)” value in the test with Aspergillus terreus AT4 was 3 (A grade of 3 represents an MIC of less than 1 mg/L). Also, the “MIC A. fumigatus (grade)” value in test [1] is listed as 3 (A grade of 3 represents an MIC of less than 1 mg/L). Moreover, in test [2], the “MIC A. fumigatus 210 (grade)” value was 3 (A grade of 3 represents an MIC of less than 1 mg/L). Also, the “MIC A. flavus (grade)” value against Aspergillus flavus is on record as 3 (A grade of 3 represents an MIC of less than 1 mg/L). In addition, the “MIC A. niger (grade)” value against Aspergillus niger was 3 (A grade of 3 represents an MIC of less than 1 mg/L). The MIC against Fusarium solani FS2 is 3 (A grade of 3 represents an MIC of less than 1 mg/L).
As for `CC(C)c1cc(NC(=O)C(=O)c2c(-c3ccccc3)cc3ccccn23)ccc1C(=O)OCCn1ccnc1C(C)C` [Example 13, 2-Isopropyl-4-[2-oxo-2-(2-phenyl-indolizin-3-yl)-acetylamino]-benzoic acid 2-(2-isopropyl-imidazol-1-yl)-ethyl ester], the MIC is less than 1 µg/mL in the test on Aspergillus terreus AT49; 1 to 10 µg/mL (≈ 1.78 to 17.8 µM) with Aspergillus terreus AT4; less than 1 µg/mL in test [1]; 1 to 10 µg/mL (≈ 1.78 to 17.8 µM) in test [2]; less than 1 µg/mL with Aspergillus flavus; more than 10 µg/mL in the test on Aspergillus niger. Moreover, in the test with Fusarium solani FS2 (read-out: MIC), the MIC was 1 to 10 µg/mL (≈ 1.78 to 17.8 µM).
On to `O=C(Nc1ccc(N2CCC3(CC2)OCCO3)cc1)C(=O)c1c(-c2ccccc2)cc2ccccn12` [Example 23, N-[4-(1,4-dioxa-8-aza-spiro[4.5]dec-8-yl)-phenyl}-2-oxo-2-(2-phenyl-indolizine-3-yl)-acetamide], for which the MIC (in the test with Aspergillus terreus AT49; with Aspergillus terreus AT4; in test [1]; in test [2]; in the test on Aspergillus flavus; in the test with Aspergillus niger) was less than 1 µg/mL throughout. For the same compound, in the test with Fusarium solani FS2 (read-out: MIC), the MIC was less than 1 µg/mL.
For `CC1CN(C2CCN(c3ccc(NC(=O)C(=O)c4c(-c5ccccc5)cc5ccccn45)cc3)CC2)CC(C)O1` (centres unmarked) [Example 24, N-{4-[4-(2,6-Dimethyl-morpholin-4-yl)-piperidin-1-yl]-phenyl}-2-oxo-2-(2-phenyl-indolizin-3-yl)-acetamide], the MIC (in the test with Aspergillus terreus AT49; in the test on Aspergillus terreus AT4; in test [1]; in test [2]; in the test on Aspergillus flavus; in the test with Aspergillus niger) was less than 1 µg/mL throughout. The MIC with Fusarium solani FS2 (read-out: MIC) lay within 1 to 10 µg/mL (≈ 1.86 to 18.6 µM).
As for `Cc1cc(C)nc(CNc2ccc(NC(=O)C(=O)c3c(-c4ccccc4)cc4ccccn34)cc2)c1` [Example 91, N-{4-[(4,6-Dimethyl-pyridin-2-ylmethyl)-amino]-phenyl}-2-oxo-2-(2-phenyl-indolizin-3-yl)-acetamide], the MIC (in the test on Aspergillus terreus AT49; with Aspergillus terreus AT4; in test [1]; in test [2]; in the test on Aspergillus flavus; with Aspergillus niger) was less than 1 µg/mL throughout.
Take `Cc1cc(C)nc(NCCNc2ccc(NC(=O)C(=O)c3c(-c4ccccc4)cc4ccccn34)cc2)c1` [Example 92, N-{4-[2-(4,6-dimethyl-pyridin-2-yl-amino)-ethylamino]-phenyl}-2-oxo-2-(2-phenyl-indolizin-3-yl)-acetamide]: the MIC was less than 1 µg/mL in the test on Aspergillus terreus AT49; less than 1 µg/mL in the test with Aspergillus terreus AT4; less than 1 µg/mL in test [1]; less than 1 µg/mL in test [2]; less than 1 µg/mL with Aspergillus flavus; 1 to 10 µg/mL (≈ 1.99 to 19.9 µM) in the test on Aspergillus niger.
In the case of “N-(4-{3-[(4,6-Dimethyl-pyridin-2-yl)-methyl-amino]-propyl}-phenyl)-2-oxo-2-(2-phenyl-indolizin-3-yl)-acetamide [Example 70]”, in the test with Aspergillus terreus AT49, the “MIC A. terreus 49 (grade)” value is 3 (A grade of 3 represents an MIC of less than 1 mg/L). Further, in the test on Aspergillus terreus AT4, the “MIC A. terreus (grade)” value is given as 3 (A grade of 3 represents an MIC of less than 1 mg/L). The “MIC A. fumigatus (grade)” value in test [1] is reported as 3 (A grade of 3 represents an MIC of less than 1 mg/L). In addition, the “MIC A. fumigatus 210 (grade)” value in test [2] is on record as 3 (A grade of 3 represents an MIC of less than 1 mg/L). Also, in the test on Aspergillus flavus, the “MIC A. flavus (grade)” value is 3 (A grade of 3 represents an MIC of less than 1 mg/L). In addition, the “MIC A. niger (grade)” value against Aspergillus niger is given as 3 (A grade of 3 represents an MIC of less than 1 mg/L).
Consider “N-[4-(3-Ethyl-1H-imidazol-2yl methyl)-phenyl]-2-oxo-2-(2-o-tolyl-indolizin-3yl)-acetamide [Example 30]”, for which the “MIC A. terreus 49 (grade)” value against Aspergillus terreus AT49 is recorded as 1 (a grade of 1 represents an MIC of greater than 10 mg/L). Further, the “MIC A. terreus (grade)” value against Aspergillus terreus AT4 is 1 (a grade of 1 represents an MIC of greater than 10 mg/L). The “MIC A. fumigatus (grade)” value in test [1] was 1 (a grade of 1 represents an MIC of greater than 10 mg/L). In addition, the “MIC A. fumigatus 210 (grade)” value in test [2] was 1 (a grade of 1 represents an MIC of greater than 10 mg/L). Moreover, in the test with Aspergillus flavus, the “MIC A. flavus (grade)” value was 1 (a grade of 1 represents an MIC of greater than 10 mg/L). Further, the “MIC A. niger (grade)” value in the test with Aspergillus niger is reported as 1 (a grade of 1 represents an MIC of greater than 10 mg/L).
On to “N-{4-[4-(2,6-Dimethyl-pyrimidin-4-yl)-piperazin-1-yl]-phenyl}-2-(2-phenyl-indolizin-3-yl)-acetamide [Example 45]”, for which the “MIC A. terreus 49 (grade)” value against Aspergillus terreus AT49 is 3 (A grade of 3 represents an MIC of less than 1 mg/L). Further, in the test on Aspergillus terreus AT4, the “MIC A. terreus (grade)” value was 3 (A grade of 3 represents an MIC of less than 1 mg/L). Besides, the “MIC A. fumigatus (grade)” value in test [1] was 3 (A grade of 3 represents an MIC of less than 1 mg/L). Further, the “MIC A. fumigatus 210 (grade)” value in test [2] is given as 3 (A grade of 3 represents an MIC of less than 1 mg/L). Further, in the test with Aspergillus flavus, the “MIC A. flavus (grade)” value is 3 (A grade of 3 represents an MIC of less than 1 mg/L). Moreover, the “MIC A. niger (grade)” value with Aspergillus niger is reported as 2 (A grade of 2 represents an MIC of from 1 to 10).
